# According to article PMC6804243, “Small-Molecule Inhibition of UBE2T/FANCL-Mediated Ubiquitylation in the Fanconi Anemia Pathway” (ACS Chemical Biology, 2019):
# “Also recorded” adds a separate entry of the source.
# Legend:
# [1] = system: T1, UBE2D1 / GST-RNF8; test: Gel-based ubiquitylation assay, E2 = UBE2D1, E3 = GST-RNF8; assay type: biochemical; settings: 10 min at 37 °C, Western blot
# T1 construct: His6 (N); made in house; host or cells: E. coli Rosetta (DE3)
# Method: (§1) Figure 2 Gel-based ubiquitylation assays with confirmed HTRF hits. […] Western blots (WB) probed for GST or biotin as labeled. Reactions contained 20 nM His6-UBE1, 50 nM E2, 250 nM GST-E3, 500 nM biotinylated ubiquitin: (a) E2 = UBE2T, E3 = GST-FANCLRING, 30 min of reaction at 37 °C; (b) E2 = UBE2D1, E3 = GST-FANCLRING, 30 min of reaction at 37 °C; and (c) E2 = UBE2D1, E3 = GST-RNF8, 10 min of reaction at 37 °C.
# A further ubiquitylation assay was performed with an alternative E3, RNF8, which also plays important roles in the DDR.[14] In contrast to GST-FANCLRING, long polyubiquitin chains were attached to GST-RNF8 by UBE2D1 (Figure 2c).
# (§2) Purified protein was concentrated using a Vivaspin-6 concentrator with a 10 kDa MW cut-off (Vivascience) and flash-frozen in small aliquots for storage at […]
# (§3) Cy5 labelling of ubiquitin. To a 5 mg/mL solution of recombinant human ubiquitin (Boston Biochem) in 0.1 M NaHCO3 pH 8.3, was added a 4-fold molar excess of Cyanine5 NHS ester (Lumiprobe). The reaction was incubated at 23 °C for 4 hours in the dark. The protein was separated from unreacted dye by passage through a PD-10 desalting column (GE Healthcare) equilibrated with PBS. Purified protein was concentrated using a Vivaspin-6 concentrator with a 3 kDa MW cut-off (Vivascience) and flash-frozen in small aliquots for storage […]
# (§4) Homogeneous Time-Resolved Fluorescence (HTRF) Assay. GST-FANCLRING (200 nM) was incubated with anti-GST Tb (CisBio, #61GSTTL) (2.5 ng final) at room temperature for 30 minutes in assay buffer (50 mM Tris-HCl pH 8.0, 1 mM TCEP, 5 mM MgCl2, 0.005% Tween-20). Meanwhile, 10 μL of UBE2T in assay buffer (or assay buffer alone for no enzyme controls) was incubated in a white 384-well plate (Corning) with 20 nL DMSO or compound in DMSO. After 30 minutes, the GST-RINGRING solution was added to an equal volume solution containing His-UBE1 (Boston Biochem) (16 nM), Cy5-ubiquitin (400 nM), ATP (0.8 mM) in assay buffer. 10 μL of this solution was immediately added to each well of the 384 -well plate containing UBE2T or buffer. F inal concentrations: His -UBE1 (4 nM), UBE2T (6 nM), GST -RINGRING (50 nM), Cy5-ubiquitin (100 nM), ATP (0.2 mM), compound (10 or 20 μM) in 0.1 %
# (§5) (v/v) DMSO. After a 10 minute incubation at 23 °C, 5 µL of a 50 mM EDTA solution were added to each well to stop the reaction. Signal was measured at λEx 340 nm and λEm 665 nm and 620 nm using a PHERAstar FS plate reader
# (§6) (BMG Labtech). A ratio was calculated as [λEm(665)/λEm(620)] × 104 for each well and this was used to determine the percent inhibition for test compounds.
# (§7) Gel-based ubiquitylation assays. Assays were carried out in a total volume of 10 µL containing 20 nM His6-UBE1 (Boston Biochem), 50 nM UBE2T, 250 nM GST-E3 and 500 nM biotinylated ubiquitin (Boston Biochem) in buffer (50 […]
# (§8) Reaction mixtures were incubated for the indicated time at 37 °C and stopped by the addition of 2X reducing SDS -PAGE sample buffer, separated on NuPAGE Novex 4 –12% Bis/Tris gradient gels (Invitrogen) and visualized by Western blotting using the indicated antibodies (Table S3).
# Cell culture. U2OS cells were cultured at 37 °C in a humidified atmosphere and 5% (v/v) CO2 in Dulbecco's Modified Eagle Medium (DMEM; Sigma-Aldrich) supplemented with 10% (v/v) fetal bovine serum (FBS), 100 units/ml of penicillin, […] of streptomycin and 292 μg/mL L-glutamine.
# Cell extract preparation and immunoblotting. U2OS cells were lysed in buffer containing 50 mM Tris-HCl pH 7.5, 2% SDS, 10 mM NEM, cocktail protease inhibitor (Roche) and phosphatase inhibitor cocktail followed by sonication 100 µg of extracts were boiled for 5 mins at 95 °C in 5X loading buffer and loaded onto NuPAGE Novex 4–12% Bis/Tris gradient gels
# (Invitrogen), or NuPAGE Novex 3-8% Tris/Acetate gradient gels (Invitrogen) for detection of mUb-FANCD2. After separation the gels were transferred to PVDF and the membranes were blocked with Tris-buffered saline containing 0.1% (v/v) Tween-20 (TBST) and 5% (v/v) bovine serum albumin (BSA) and […]
# [2] = system: T2, UBE2D1 / GST-FANCLRING; test: Gel-based ubiquitylation assay, E2 = UBE2D1, E3 = GST-FANCLRING; assay type: biochemical; settings: 30 min at 37 °C, Western blot
# T2 construct: the RING domain (residues 275–375) of the E3 FANCL (FANCLRING); His6 (N); made in house; host or cells: E. coli Rosetta (DE3)
# Method: as §1
# In order to explore the selectivity of CU1, CU2, CU9, CU10, and CU12, we conducted a counter-screen against other E2 and E3 combinations. Since members of the UBE2D family of E2s are known to ubiquitylate multiple substrates in vitro,[13] a ubiquitylation assay featuring UBE2D1 and GST-FANCLRING was performed. With UBE2D1, multiple ubiquitylated GST-FANCLRING species could be observed (Figure 2b).
# as §2, §3, §4, §5, §6, §7, §8
# Cell culture. […]
Compound,ubiquitylation of GST-RNF8 and UBE2D1 [1],ubiquitylation of GST-RNF8 and UBE2D1 ([1]; listed as CU 1),ubiquitylation of GST-FANCLRING [2]
NCCN1C(=O)CC[C@H]2CN(Cc3cccc(-c4ccco4)c3)CC[C@H]21 [CU1],but not GST-RNF8,no detectable effects on ubiquitylation of GST-RNF8 and UBE2D1,essentially abolished the ubiquitylation of GST-FANCLRING
CCN1CCN(c2cc(C)nc3nc(CN4CCCCC4C)nn23)CC1 (stereo not drawn) [CU2],but not GST-RNF8; also recorded: no detectable effects on ubiquitylation of GST-RNF8 and UBE2D1,,essentially abolished the ubiquitylation of GST-FANCLRING
Cc1nnc(N(C)CC2CCN(CC(C)O)CC2)c(C#N)c1C (stereo not drawn) [CU9],but not GST-RNF8; also recorded: no detectable effects on ubiquitylation of GST-RNF8 and UBE2D1,,essentially abolished the ubiquitylation of GST-FANCLRING
NC(=O)[C@@H]1CCCN1C(=O)c1cc(-n2cccc2)ccc1Cl [CU12],appeared to inhibit the ubiquitylation of all species in the assay,,essentially abolished the ubiquitylation of GST-FANCLRING
